# Experiments:
# Type in all cases: in vivo
# [1] = system: Cabbage Looper [Trichoplusia ni (Hubner)]; test: Cabbage looper leaf dip (CL), 3-5 days; conditions: percent in solution, second-instar larvae
# Method in brief: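 LC50, as percent test compound in solution, derived from dosage-mortality curves; concentrations started at 0.1% and went lower. Five second-instar larvae per dish fed on acetone-water-dipped, dried squash cotyledons in a humid chamber. Deaths recorded 3-5 days post-infestation.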
# [2] = system: Black Bean Aphid [Aphis fabae (Scop.)]; test: Black bean aphid spray test on nasturtium (BBA), 48 hours; conditions: percent of test compound in sprayed solution
# Method in brief: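 LC50, given as percent test compound in the sprayed liquid, was calculated from dosage-mortality curves using concentrations from 0.05% downward. Sprays in 50:50 acetone-water went to runoff on ~5 cm nasturtiums carrying 25-50 aphids of mixed ages, one day after infestation. Deaths were counted 48 h later under greenhouse conditions.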
# [3] = system: Tobacco Budworm [Heliothis virescens (Fabricius)] eggs; test: Tobacco budworm eggs (TBW-E); conditions: percent in solution; 2-day old eggs
# Method in brief: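 LC50 is given as percent compound in the dipping solution, fitted from dosage-mortality curves. Two-day-old eggs on paper towel were dipped in acetone solutions (top concentration 0.1%), kept at 78° F on rearing medium, and scored after control hatch and larval feeding.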
# [4] = system: Maize weevil [Sitophilus zeamais (Motschulsky)]; test: Maize weevil on dipped corn seeds (MW), 48 hours; conditions: percent in solution, adult weevils
# Experimental: The compounds in Tables 1 and 2 above were tested for insecticidal activity using the following testing procedures. LC50 values, based on the results of these tests and calculated according to dosage-mortality curves, are expressed in Table 3.
# Maize weevil [Sitophilus zeamais (Motschulsky)]:
# Test compounds were diluted in a 50:50 acetone:water solution. Four corn seeds [Zea mays (L.)] which had been immersed in test solutions for 2-3 seconds and allowed to dry were placed in containers together with 10 adult weevils. The containers were covered and kept at a temperature of about 25° C. Mortality was recorded after 48 hours. Test concentrations ranged from 0.01% down to that at which 50% mortality occurred. The LC50 values are expressed below in Table 3 under the heading "MW" in terms of percent of the test compound in solution.
# [5] = system: Housefly [Musca domestica]; test: Housefly contact mortality in dishes (HF), 48 hours; conditions: μg of test compound per 25 female flies
# Method in brief: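 LC50 (μg compound per 25 female flies) derives from dosage-mortality curves of 48 h kill. Flies, females 1-2 days old, were held 25 per cage over a dish coated with dried acetone deposit, starting at 100 μg per cage and descending.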
Compound,LC50 CL [1] [%],LC50 BBA [2] [%],LC50 TBW E (eggs) [3] [%],LC50 MW [4] [%],LC50 HF [5] [µg]
CC(C)C(=Nc1ccc(OCC(F)(F)F)c(Cl)c1)OCc1cccc(Oc2ccccc2)c1 [Compound 425],0.00075,0.0035,> 0.1,> 0.01,> 100
C=C(C)C(=Nc1ccc(F)c(Cl)c1)OCc1ccc(F)c(Oc2ccc(Cl)cc2)c1 [Compound 415],0.00075,0.0007,0.035,> 0.01,< 100
COc1ccc(Oc2cccc(COC(=Nc3ccc(C(C)(C)C)cc3)C(C)C)c2)cc1 [Compound 345],0.018,0.006,> 0.1,> 0.01,> 100
CC(C)C(=Nc1ccc(F)c(Cl)c1)OCc1cccc(Oc2cccc(Cl)c2)c1 [Compound 203],0.0025,0.006,0.06,> 0.01,43
COc1ccc(N=C(OCc2ccc(F)c(Oc3ccccc3)c2)C(C)C)cc1F [Compound 435],0.002,0.001,0.04,> 0.01,< 100
CC(C)C(=Nc1ccc(Cl)c(F)c1)OCc1ccc(F)c(Oc2ccc(F)cc2)c1 [Compound 441],0.000025,0.0003,0.016,0.006,< 100
CC(C)C(=Nc1ccc(F)c(Br)c1)OCc1cccc(Oc2ccccc2)n1 [Compound 558],0.00045,0.0012,> 0.1,> 0.01,< 100
CC(C)C(=Nc1cccc(F)c1)OCc1ccc(F)c(Oc2ccc(F)cc2)c1 [Compound 342],0.0008,0.0006,0.04,> 0.01,4.1
Cc1cc(N=C(OCc2cccc(Oc3ccc(Cl)cc3)c2)C(C)C)ccc1F [Compound 397],0.0019,0.002,< 0.1,> 0.01,< 100
CCOc1ccc(N=C(OCc2cccc(Oc3ccc(F)cc3)c2)C(C)C)cc1Br [Compound 446],0.0008,0.001,< 0.1,> 0.01,> 100
Cc1cc(N=C(OCc2ccc(F)c(Oc3ccccc3)c2)C(C)C)ccc1F [Compound 400],0.0007,0.0003,0.025,> 0.01,< 100
CC(C)C(=Nc1cccc(Cl)c1)OCc1ccc(F)c(Oc2ccc(Cl)cc2)c1 [Compound 390],0.0021,0.0006,0.045,> 0.01,< 100
CCc1ccc(N=C(OCc2cccc(Oc3ccc(Cl)cc3)n2)C(C)C)cc1 [Compound 552],0.0016,0.002,> 0.1,> 0.01,> 100
Cc1ccc(N=C(OCc2cccc(Oc3ccc(Cl)cc3)c2)C(C)C)cc1Cl [Compound 403],> 0.1,0.001,> 0.1,> 0.01,< 100
CC(C)C(=Nc1ccc(OCC(F)(F)F)cc1)OCc1cccc(Oc2ccccc2)c1 [Compound 423],0.002,> 0.05,> 0.1,> 0.01,> 100
COCc1c(F)c(F)c(COC(=Nc2cccc(C(F)(F)F)c2)C(C)C)c(F)c1F [Compound 503],0.001,0.006,0.08,> 0.01,21
CCc1ccccc1N=C(OCc1cccc(Oc2ccc(F)cc2)c1)C(C)C [Compound 411],> 0.1,> 0.05,> 0.1,> 0.01,< 100

Compound,LC50 CL [1] [%],LC50 BBA [2] [%],LC50 TBW E (eggs) [3] [%],LC50 MW [4] [%],LC50 HF [5] [µg]
CC(C)C(=Nc1ccc(C(F)(F)F)c(Br)c1)OCc1ccc(F)c(Oc2ccccc2)c1 [Compound 434],0.0017,0.003,> 0.1,0.009,< 100
CC(C)C(=Nc1ccc(C#N)cc1)OCc1ccc(F)c(Oc2ccc(Cl)cc2)c1 [Compound 392],0.00034,0.001,0.039,> 0.01,< 100
Clc1ccc(N=C(OCc2cccc(Oc3ccccc3)c2)C2CCC2)cc1 [Compound 8],0.01,0.03,> 0.1,> 0.01,50
CC(C)C(=Nc1ccc(C(F)(F)F)cc1Cl)OCc1ccc(F)c(Oc2ccccc2)c1 [Compound 428],0.0017,0.003,> 0.1,> 0.01,> 100
CC(C)C(=Nc1ccc(C#N)cc1)OCc1ccc(F)c(Oc2ccc(F)cc2)c1 [Compound 394],0.00025,0.002,0.05,> 0.01,< 100
CC(C)C(=Nc1ccc(I)c(Cl)c1)OCc1cccc(Oc2ccc(F)cc2)c1 [Compound 374],0.00058,0.0008,0.02,> 0.01,< 100
CC(C)C(=Nc1ccc(C(F)(F)F)cc1Cl)OCc1cccc(Oc2ccc(F)cc2)c1 [Compound 427],< 0.1,0.05,> 0.1,> 0.01,> 100
CC(C)C(=Nc1ccc(F)c(Cl)c1)OCc1ccnc(Oc2ccc(F)cc2)c1 [Compound 511],0.0012,0.05,> 0.1,> 0.01,89
CC(C)C(=Nc1ccc(C(F)(F)F)cc1[N+](=O)[O-])OCc1ccc(F)c(Oc2ccccc2)c1 [Compound 445],0.00045,0.001,> 0.1,> 0.01,< 100
CC(C)C(=Nc1ccc(S(C)(=O)=O)cc1)OCc1ccc(F)c(Oc2ccc(F)cc2)c1 [Compound 414],0.0024,> 0.05,> 0.1,> 0.01,< 100
CC(C)C(=Nc1ccc2c(c1)OC(F)(F)O2)OCc1cccc(Oc2ccccc2)n1 [Compound 556],0.0007,0.0035,0.04,> 0.01,< 100
COc1ccc(N=C(OCc2ccc(F)c(Oc3ccc(Cl)cc3)c2)C(C)C)cc1Cl [Compound 410],> 0.1,0.0025,> 0.1,> 0.01,< 100
CC(C)C(=Nc1ccc(F)c(Cl)c1F)OCc1ccc(F)c(Oc2ccc(Cl)cc2)c1 [Compound 395],< 0.1,0.0001,0.018,0.004,8.6
CC(C)C(=Nc1ccc(Cl)cc1)OCc1cccc(Oc2ccccc2)n1 [Compound 553],< 0.1,0.05,0.1,> 0.01,< 100
COCc1c(F)c(F)c(COC(=Nc2ccc(F)c(Cl)c2)C(C)C)c(F)c1F [Compound 505],0.0024,0.002,0.09,> 0.01,14
Cc1ccc(Oc2cccc(COC(=Nc3ccc(C(C)(C)C)cc3)C(C)C)c2)cc1 [Compound 344],0.024,0.008,> 0.1,> 0.01,> 100

# Source: patent publication US5045566A, “Novel imidate insecticides” (ICI Americas Inc., priority 1989, dated 1991)
